Results taken from patent publication US20060057092A1, “Cosmetic use of a composition including an ascorbic acid compound and polyamide particles” (L'OREAL, priority 2004, published 2006).

Test system: immortalized human sebocytes resulting from the SZ95 line
Assay: Lipogenesis in cultured immortalized human sebocytes (Nile Red fluorescence, neutral lipids)
Type: cell-based
Conditions: for Inhibition of lipogenesis: Effectiveness (% with respect to the control): 0.0004% in culture medium, 2 days of treatment, neutral lipids
Experimental: Various ascorbic acid compounds were tested on a model of cultured immortalized human sebocytes resulting from the SZ95 line described in Zouboulis, C. C., Seltmann, H., Neitzel, H. and Orfanos, C. E., Establishment and Characterization of an Immortalized Human Sebaceous Gland Cell Line, J. Invest. Dermatol., 113, 1011-1020 (1999).
These compounds were composed of L-ascorbic acid 2-O-α-D-glucopyranoside (hereinafter ascorbyl glucoside), of ascorbic acid, of ascorbyl palmitate and of magnesium ascorbyl phosphate.
The test consisted in measuring the amount of lipids produced by the sebocytes of the line (at confluence) in the presence or absence of active agents diluted in the culture medium. After 2 days of treatment, the adherent cells are treated with Nile Red (1 μg/ml). The content of lipids is subsequently quantified by measuring the fluorescence of the dye (two excitation/emission pairs: 485-540 nm for the neutral lipids and 540-620 nm for the nonneutral lipids). The results are given for the neutral lipids (components of the sebum).
The experiment is carried out in octuplicate (tested and control products) in a 96-well plate.

Structure (SMILES)	Inhibition of lipogenesis: Effectiveness (% with respect to the control)	further results
O=C1O[C@H]([C@@H](O)CO)C(O)=C1O [Ascorbic acid, ascorbic acid]	ns	
O=C1O[C@H]([C@@H](O)CO)C(O)=C1O[C@H]1O[C@H](CO)[C@@H](O)[C@H](O)[C@H]1O [Ascorbyl glucoside, L-ascorbic acid 2-O-α-D-glucopyranoside]		effective concentration for reducing lipogenesis relative to ascorbic acid (comparable level of inhibition) (SZ95 sebocytes): ten times lower
O=C1O[C@H]([C@@H](O)CO)C([O-])=C1OP(=O)([O-])[O-].O=C1O[C@H]([C@@H](O)CO)C([O-])=C1OP(=O)([O-])[O-].[Mg+2].[Mg+2].[Mg+2] [Magnesium ascorbyl phosphate, magnesium ascorbyl phosphate]	ns	
CCCCCCCCCCCCCCCC(=O)OC[C@H](O)[C@H]1OC(=O)C(O)=C1O [Ascorbyl palmitate, ascorbyl palmitate]		effect on lipogenesis (in words) (SZ95 sebocytes): stimulating (and not inhibiting) effect
